According to ChEMBL document CHEMBL6078710, “Design, synthesis and biological evaluation of new SIRT3 activators for the treatment of triple-negative breast cancer” (Bioorg Med Chem, 2025):

Columns and labels:
[1] = test system: MDA-MB-231; test: Antiproliferative activity against human MDA-MB-231 cells assessed as inhibition of cell proliferation by MTT assay
[2] = test system: BT-549; test: Antiproliferative activity against human BT-549 cells assessed as inhibition of cell proliferation by MTT assay
[3] = target: T1, NAD-dependent protein deacetylase sirtuin-3, mitochondrial (Homo sapiens, UniProt Q9NTG7); test: Activation of SIRT3 (unknown origin)
T1 sequence (Q9NTG7 whole entry): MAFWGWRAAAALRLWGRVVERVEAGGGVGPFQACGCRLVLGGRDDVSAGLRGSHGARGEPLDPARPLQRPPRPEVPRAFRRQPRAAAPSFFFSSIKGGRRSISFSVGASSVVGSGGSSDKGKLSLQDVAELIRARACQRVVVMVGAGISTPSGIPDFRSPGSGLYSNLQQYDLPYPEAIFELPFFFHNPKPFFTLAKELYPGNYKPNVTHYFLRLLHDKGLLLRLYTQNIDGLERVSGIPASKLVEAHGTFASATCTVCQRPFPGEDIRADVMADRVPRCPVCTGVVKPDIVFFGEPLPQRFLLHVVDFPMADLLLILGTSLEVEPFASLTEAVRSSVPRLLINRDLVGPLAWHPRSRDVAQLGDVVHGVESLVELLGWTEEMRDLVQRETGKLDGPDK

| Compound | IC50 [1] | IC50 [2] | EC50 [3] |
| --- | --- | --- | --- |
| CCOC(=O)C1=CN(C(=O)c2cc(OC)c(OC)c(OC)c2)C=C(C(=O)OCC)C1c1ccccc1 | 5.23 µM | 4.79 µM |  |
| CCOC(=O)C1=CN(C(=O)c2ccc(OC)c(OC)c2)C=C(C(=O)OCC)C1c1ccc(S(C)(=O)=O)cc1 | 15.2 µM | 11.9 µM |  |
| CC(C)C[C@@H]1NC(=O)CCN2C(=O)CC3(CC(C)(C)C(=O)N3S(=O)(=O)c3cccc(c3)C(=O)OCCOC(=O)[C@H](Cc3ccccc3)NC1=O)C2=O (some centres undefined) |  |  | 29.4 µM |
| CCOC(=O)C1=CN(C(=O)c2cc(OC)c(OC)c(OC)c2)C=C(C(=O)OCC)C1c1cnc(Cl)c(Cl)c1 | 5.78 µM | 2.77 µM |  |
| CCOC(=O)C1=CN(C(=O)c2cc(OC)c(OC)c(OC)c2)C=C(C(=O)OCC)C1c1ccc(S(C)(=O)=O)cc1 | 14.2 µM | 8.21 µM |  |
